Experiments:
Format in all cases: cell-based
MCF7 cells = assay: Cell viability assay ([…]-GLO, 6-day treatment); conditions: Homo sapiens, MCF7, 144 h; MCF-7 cells, 6 days, CTG; read-out: Inhibition of Cancerous Cells IC50 MCF-7
How it was run: (§1)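 MCF7 (MEM) and T47D (RPMI with insulin), both with 10% FBS, at 1,000 cells/well, treated with a 10-point compound dose series for 6 days, with medium and compound refreshed once. Viability read by CellTiter-Glo luminescence.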

T47D cells = assay: Cell viability assay ([…]-GLO, 6-day treatment); conditions: Homo sapiens, 144 h, 6 days, CTG, read-out: Inhibition of Cancerous Cells IC50 T47D
How it was run: as §1

ERα = target: T1, ERα (Homo sapiens, UniProt P03372); assay: Protein degradation assay: ERα in MCF-7 cells via western blot; conditions: 6 h; for ERα Protein Degradation 1 nM: 1 nM compound; for ERα Protein Degradation 10 nM: 10 nM compound; for ERα Protein Degradation 100 nM: 100 nM compound
T1 construct: degrading an ERα in MCF-7 cells via a western blot; endogenous in cells; host or cells: MCF-7
T1 sequence (P03372 1-595): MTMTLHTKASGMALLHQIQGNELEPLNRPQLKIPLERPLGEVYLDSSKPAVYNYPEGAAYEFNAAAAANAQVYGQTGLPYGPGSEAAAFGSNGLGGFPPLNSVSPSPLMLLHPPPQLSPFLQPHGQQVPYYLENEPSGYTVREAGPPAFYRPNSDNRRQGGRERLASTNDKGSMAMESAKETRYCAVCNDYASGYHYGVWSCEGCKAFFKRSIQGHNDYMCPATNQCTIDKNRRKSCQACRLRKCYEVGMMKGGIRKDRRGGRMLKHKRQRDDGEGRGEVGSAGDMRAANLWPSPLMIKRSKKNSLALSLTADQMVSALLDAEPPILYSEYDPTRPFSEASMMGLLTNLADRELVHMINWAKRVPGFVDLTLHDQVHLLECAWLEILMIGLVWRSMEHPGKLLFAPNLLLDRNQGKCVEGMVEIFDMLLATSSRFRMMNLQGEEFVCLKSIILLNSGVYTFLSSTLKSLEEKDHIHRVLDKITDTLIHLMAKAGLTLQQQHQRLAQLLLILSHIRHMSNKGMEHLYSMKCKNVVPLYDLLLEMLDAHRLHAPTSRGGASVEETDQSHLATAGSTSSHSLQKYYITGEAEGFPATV
How it was run: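 MCF-7 cells in MEM/10% FBS with insulin, seeded 300,000/well, treated 6 h at set concentrations (e.g., 1 nM–1 μM). Whole-cell lysates immunoblotted for ERα with GAPDH loading control, chemiluminescent detection; percentage degradation reported in binned categories (≥50%, 25–50%, 10–25%, <10%).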

| Structure (SMILES) | IC50 (MCF7 cells) | IC50 (T47D cells) | ERα Protein Degradation 1 nM (ERα) | ERα Protein Degradation 10 nM (ERα) | ERα Protein Degradation 100 nM (ERα) |
| --- | --- | --- | --- | --- | --- |
| O=C1CCC(N2Cc3c(csc3C3CCN(CC4CCN(c5ccc([C@@H]6c7ccc(O)cc7CC[C@@H]6c6ccccc6)cc5)CC4)CC3)C2=O)C(=O)N1 (stereo partly drawn) [Compound A7, 3-(1-(1-((1-(4-((1R,2S)-6-hydroxy-2-phenyl-1,2,3,4-tetrahydronaphthalen-1-yl)phenyl)piperidin-4-yl)methyl)piperidin-4-yl)-4-oxo-4H-thieno[3,4-c]pyrrol-5(6H)-yl)-piperidine-2,6-dione] | 145 nM | 0.18 nM | D (a percentage degradation value of less than 10%) | D (a percentage degradation value of less than 10%) | D (a percentage degradation value of less than 10%) |
| O=C1CCC(N2Cc3cc(N4CCN(CC5CCN(c6ccc([C@@H]7c8ccc(O)cc8CC[C@@H]7c7ccccc7)cc6)CC5)CC4)ccc3C2=O)C(=O)N1 (stereo partly drawn) [Compound A14, 3-(5-(4-((1-(4-((1R,2S)-6-Hydroxy-2-phenyl-1,2,3,4-tetrahydronaphthalen-1-yl)-phenyl)piperidin-4-yl)methyl)piperazin-1-yl)-1-oxoisoindolin-2-yl)piperidine-2,6-dione] | 1.1 nM | 0.86 nM | A (a percentage degradation value of no less than 50%) | A (a percentage degradation value of no less than 50%) | A (a percentage degradation value of no less than 50%) |
| O=C1CCC(N2Cc3c(csc3C3CCN(CCCCOc4ccc([C@@H]5c6ccc(O)cc6CC[C@@H]5c5ccccc5)cc4)CC3)C2=O)C(=O)N1 (stereo partly drawn) [Compound A19, 3-(1-(1-(4-(4-((1R,2S)-6-Hydroxy-2-phenyl-1,2,3,4-tetrahydronaphthalen-1-yl)-phenoxy)butyl)piperidin-4-yl)-4-oxo-4H-thieno[3,4-c]pyrrol-5(6H)-yl)piperidine-2,6-dione] | 2.2 nM | 0.07 nM | D (a percentage degradation value of less than 10%) | D (a percentage degradation value of less than 10%) | D (a percentage degradation value of less than 10%) |
| Cn1nc(C2CCC(=O)NC2=O)c2ccc(OCC(=O)N3CCN(CCCCOc4ccc([C@@H]5c6ccc(O)cc6CC[C@@H]5c5ccccc5)cc4)CC3)cc21 (stereo partly drawn) [Compound B2, 3-(6-(2-(4-(4-(4-((1R,2S)-6-hydroxy-2-phenyl-1,2,3,4-tetrahydronaphthalen-1-yl)phenoxy)butyl)piperazin-1-yl)-2-oxoethoxy)-1-methyl-1H-indazol-3-yl)piperidine-2,6-dione] | 0.25 nM | 0.01 nM | B (a percentage degradation value of less than 50% and no less than 25%) | B (a percentage degradation value of less than 50% and no less than 25%) | C (a percentage degradation value of less than 25% and no less than 10%) |
| O=C1CCC(c2cccc(OCC(=O)N3CCN(CCCCOc4ccc([C@@H]5c6ccc(O)cc6CC[C@@H]5c5ccccc5)cc4)CC3)c2)C(=O)N1 (stereo partly drawn) [Compound B5, 3-(3-(2-(4-(4-(4-((1R,2S)-6-hydroxy-2-phenyl-1,2,3,4-tetrahydronaphthalen-1-yl)phenoxy)butyl)piperazin-1-yl)-2-oxoethoxy)phenyl)piperidine-2,6-dione] | 1.2 nM | 0.48 nM | D (a percentage degradation value of less than 10%) | D (a percentage degradation value of less than 10%) | D (a percentage degradation value of less than 10%) |
